The text below walks through data of patent US8551984B2, “Aminopyrimidines as SYK inhibitors” (Merck Sharp & Dohme Corp., priority 2009, dated 2013).

Structures can show the parent of a compound that is named as a salt.

The assay addresses recombinant human SYK (GST-hSYK fusion protein) (Homo sapiens, UniProt P43405). Description: biochemical.
[1] abbreviates: rhSYK Activity, table after Example 68.
The mark [2] stands for this setting: rhSYK Activity, table after Example 75.
Where [3] appears, read: rhSYK Activity (IC50), recombinant human GST-SYK 5 pM, ATP 25 μM, biotinylated substrate peptide 250 nM, HTRF, 10-dose titration.

Excerpt: Homogeneous Time-Resolved Fluorescence (HTRF) Assay for the Recombinant Human SYK Enzyme:

A word on the IC50: it is the midpoint of a concentration-inhibition curve. Consider `Cc1cc(Nc2nccc(C(F)(F)F)n2)cc(-c2cnc(C3(NC(N)=O)CCNC(=O)CC3)s2)c1` (centres unmarked) [Example 64-9], for which, under “rhSYK Activity, Table 64, first part”, the IC50 is below 100 nM.

As for `Cc1cc(Nc2nccc(C(F)(F)F)n2)cc(-c2cnc(C(NC(N)=O)(C3CC3)C3CC3)s2)c1` [Example 64-10], the IC50 (rhSYK Activity, Table 64, second part (structure)) was below 100 nM. With `Cc1cc(Nc2ncc(C(=O)O)cn2)cc(-c2cnc(C3(O)CCC3)s2)c1` [Example 68-1], the IC50 under setting [1] fell in the range of 100 to 1000 nM. On to `OC1(c2ncc(-c3cccc(Nc4nccc(C(F)(F)F)n4)c3)s2)CCC1` [Example 68-2], for which the IC50 under setting [1] is below 100 nM. For `Cc1cc(Nc2nccc(C(C)(C)C)n2)cc(-c2cnc(C(C)(C)S(N)(=O)=O)s2)c1` [Example 70-1], the IC50 (rhSYK Activity, Table 70) was below 100 nM. On the same count and under the same terms, the result for `Cc1cc(Nc2nccc(C(C)C)n2)cc(-c2cnc(C(C)(C)S(N)(=O)=O)s2)c1` [Example 70-2] reads below 100 nM. For the compound `Cc1cc(Nc2nccc(C(F)(F)F)n2)cc(-c2cnc(C3(S(C)(=O)=O)CCC3)s2)c1` [Example 74B-2], the IC50 (rhSYK Activity, Table 74B) was below 100 nM.

Turning to `CS(=O)(=O)C1(c2ncc(-c3cc(Nc4nccc(C(F)(F)F)n4)cc([N+](=O)[O-])c3)s2)CCC1` [Example 74B-3], the concentration for half-maximal inhibition (IC50) (rhSYK Activity, Table 74B) lay within 1000 to 10000 nM.

`Cc1cc(Nc2nccc(C(F)(F)F)n2)cc(-c2cnc(C3(S(N)(=O)=O)CCC3)s2)c1` [Example 74B-4]: the IC50 (rhSYK Activity, Table 74B) is below 100 nM. Regarding `NS(=O)(=O)Cc1ncc(-c2cccc(Nc3nccc(C(F)(F)F)n3)c2)s1` [Example 75-1], the IC50 under setting [2] is below 100 nM. For the compound `COc1ccnc(Nc2cc(C)cc(-c3cnc(CS(N)(=O)=O)s3)c2)n1` [Example 75-2], the IC50 under setting [2] is below 100 nM. For the compound `Cc1cc(Nc2nccc(C(F)(F)F)n2)cc(-c2cnc(CC(C)(C)C(=O)O)s2)c1` [Example 78, 2,2-dimethyl-3-[5-(3-methyl-5-{[4-(trifluoromethyl)pyrimidin-2-yl]amino}phenyl)-1,3-thiazol-2-yl]propanoic acid (potassium salt and TFA salt)], the IC50 under setting [3] was below 100 nM. `CCOC(=O)CCc1ncc(-c2cc(C)cc(Nc3nccc(C(F)(F)F)n3)c2)s1` [Example 79-1, Ethyl 3-[5-(3-methyl-5-{[4-(trifluoromethyl)pyrimidin-2-yl]amino}phenyl)-1,3-thiazol-2-yl]-propanoate]: the IC50 under setting [3] was below 100 nM.

On to `Cc1cc(Nc2nccc(C(F)(F)F)n2)cc(-c2cnc(CCC(N)=O)s2)c1` [Example 79-2], for which the IC50 under setting [3] is below 100 nM. On the same count and under the same terms, as for `Cc1cc(Nc2nccc(C(F)(F)F)n2)cc(-c2cnc(CCC(=O)N(C)C)s2)c1` [Example 79-4], the figure is below 100 nM; as for `Cc1cc(Nc2nccc(C(F)(F)F)n2)cc(-c2cnc(CCC(=O)N3CCOCC3)s2)c1` [Example 79-5], below 100 nM. With `Cc1cc(Nc2nccc(C(F)(F)F)n2)cc(-c2cnc(CCC(=O)NCCO)s2)c1` [Example 79-6], under setting [3], the IC50 is below 100 nM. With `Cc1cc(Nc2nccc(C(F)(F)F)n2)cc(-c2cnc(CCc3nnco3)s2)c1` [Example 79-7], the IC50 under setting [3] is below 100 nM. `Cc1cc(Nc2nccc(C(F)(F)F)n2)cc(-c2cnc(CCc3nnc(C)o3)s2)c1` [Example 79-8]: under setting [3], the IC50 was below 100 nM. `Cc1cc(Nc2nccc(C(F)(F)F)n2)cc(-c2cnc(CCc3nnc(C4CC4)o3)s2)c1` [Example 79-9]: under setting [3], the IC50 is below 100 nM.

For the compound `Cc1cc(Nc2nccc(C(F)(F)F)n2)cc(-c2cnc(CC(C)(C)C(N)=O)s2)c1` [Example 79-10], under setting [3], the IC50 was below 100 nM. On to `Cc1cc(Nc2nccc(C(F)(F)F)n2)cc(-c2cnc(CC(C)(C)C(=O)N(C)C)s2)c1` [Example 79-11], for which the IC50 under setting [3] is below 100 nM. Turning to `Cc1cc(Nc2nccc(C(F)(F)F)n2)cc(-c2cnc(CCC(C)(C)O)s2)c1` [Example 80, 2-methyl-4-[5-(3-methyl-5-{[4-(trifluoromethyl)pyrimidin-2-yl]amino}phenyl)-1,3-thiazol-2-yl]butan-2-ol], the IC50 under setting [3] is below 100 nM. `Cc1cc(Nc2nccc(C(F)(F)F)n2)cc(-c2cnc(C(C)(C)C(=O)OC(C)(C)C)s2)c1` [Example 81, tert-Butyl 2-methyl-2-[5-(3-methyl-5-{[4-(trifluoromethyl)pyrimidin-2-yl]amino}phenyl)-1,3-thiazol-2-yl]propanoate]: the IC50 under setting [3] was 100 to 1000 nM. Turning to `Cc1cc(Nc2nccc(C(F)(F)F)n2)cc(-c2cnc(C(C)(C)c3nnco3)s2)c1` [Example 82, N-(3-methyl-5-{2-[2-(1,3,4-oxadiazol-2-yl)propan-2-yl]-1,3-thiazol-5-yl}phenyl)-4-(trifluoromethyl)pyrimidin-2-amine], the IC50 under setting [3] was below 100 nM. `Cc1cc(Nc2nccc(C(F)(F)F)n2)cc(-c2cnc(C3(C(=O)OC(C)(C)C)CC3)s2)c1` [Example 83, tert-butyl 1-[5-(3-methyl-5-{[4-(trifluoromethyl)pyrimidin-2-yl]amino}phenyl)-1,3-thiazol-2-yl]cyclopropanecarboxylate]: the IC50 under setting [3] was 100 to 1000 nM.

With `Cc1cc(Nc2nccc(C(F)(F)F)n2)cc(-c2cnc(C3(C(=O)O)CC3)s2)c1` [Example 84, 1-[5-(3-methyl-5-{[4-(trifluoromethyl)pyrimidin-2-yl]amino}phenyl)-1,3-thiazol-2-yl]cyclopropanecarboxylic acid (TFA salt)], the IC50 under setting [3] was below 100 nM. Take `Cc1cc(Nc2nccc(C(F)(F)F)n2)cc(-c2cnc(C3(c4nnco4)CC3)s2)c1` [Example 85, N-(3-methyl-5-{2-[1-(1,3,4-oxadiazol-2-yl)cyclopropyl]-1,3-thiazol-5-yl}phenyl)-4-(trifluoromethyl)pyrimidin-2-amine]: the IC50 under setting [3] is below 100 nM. The same measure, in the same setting: as for `Cc1cc(Nc2nccc(C(F)(F)F)n2)cc(-c2cnc(C(C)(C)C(N)=O)s2)c1` [Example 85A-1], the figure is below 100 nM; as for `Cc1cc(Nc2nccc(C(F)(F)F)n2)cc(-c2cnc(C(C)(C)C(=O)N(C)C)s2)c1` [Example 85A-2], below 100 nM; as for `Cc1cc(Nc2nccc(C(F)(F)F)n2)cc(-c2cnc(C(C)(C)C(=O)N3CCOCC3)s2)c1` [Example 85A-3], below 100 nM. With `Cc1cc(Nc2nccc(C(F)(F)F)n2)cc(-c2cnc(C(C)(C)c3nnc(C)o3)s2)c1` [Example 85A-4], under setting [3], the IC50 is below 100 nM. For `Cc1cc(Nc2nccc(C(F)(F)F)n2)cc(-c2cnc(C3(C(=O)N(C)C)CC3)s2)c1` [Example 85B-1], the IC50 under setting [3] is below 100 nM.

On to `CNC(=O)C1(c2ncc(-c3cc(C)cc(Nc4nccc(C(F)(F)F)n4)c3)s2)CC1` [Example 85B-2], for which, under setting [3], the IC50 is below 100 nM. On the same count and under the same terms, the result for `Cc1cc(Nc2nccc(C(F)(F)F)n2)cc(-c2cnc(C3(C(N)=O)CC3)s2)c1` [Example 85B-3] reads below 100 nM; that for `Cc1cc(Nc2nccc(C(F)(F)F)n2)cc(-c2cnc(C3(c4nnc(C)o4)CC3)s2)c1` [Example 85B-4], below 100 nM. As for `Cc1cc(Nc2nccc(C(F)(F)F)n2)cc(-c2cnc(C(=O)O)s2)c1` [Example 86, 5-(3-methyl-5-{[4-(trifluoromethyl)pyrimidin-2-yl]amino}phenyl)-1,3-thiazole-2-carboxylic acid], the IC50 under setting [3] was below 100 nM. With `Cc1cc(Nc2nccc(C(F)(F)F)n2)cc(-c2cnc(C(=O)NC[C@@H](O)CO)s2)c1` [Example 87, N-[(2R)-2,3-dihydroxypropyl]-5-(3-methyl-5-{[4-(trifluoromethyl)pyrimidin-2-yl]amino}-phenyl)-1,3-thiazole-2-carboxamide], the IC50 under setting [3] was below 100 nM.

For the compound `Cc1cc(Nc2nccc(C(F)(F)F)n2)cc(-c2cnc(C(=O)NC(C)C)s2)c1` [Example 87A-1], under setting [3], the IC50 is 100 to 1000 nM.

As to `Cc1cc(Nc2nccc(C(F)(F)F)n2)cc(-c2cnc(C(N)=O)s2)c1` [Example 87A-2], the IC50 under setting [3] was in the range of 100 to 1000 nM. Same read-out and setting: as for `Cc1cc(Nc2nccc(C(F)(F)F)n2)cc(-c2cnc(C(=O)NCCS(C)(=O)=O)s2)c1` [Example 87A-5], the figure is below 100 nM.

Regarding `Cc1cc(Nc2nccc(C(F)(F)F)n2)cc(-c2cnc(C(=O)N(C)CCO)s2)c1` [Example 87A-6], under setting [3], the IC50 was below 100 nM. For `Cc1cc(Nc2nccc(C(F)(F)F)n2)cc(-c2cnc(C(=O)NCC(C)O)s2)c1` (centres unmarked) [Example 87A-7], the IC50 under setting [3] was below 100 nM. Same read-out and setting: the result for `Cc1cc(Nc2nccc(C(F)(F)F)n2)cc(-c2cnc(C(=O)NC(C)CO)s2)c1` (centres unmarked) [Example 87A-8] reads below 100 nM. Take `Cc1cc(Nc2nccc(C(F)(F)F)n2)cc(-c2cnc(C(=O)NC3(CO)CC3)s2)c1` [Example 87A-9]: the IC50 under setting [3] was below 100 nM. For `CCC(CO)NC(=O)c1ncc(-c2cc(C)cc(Nc3nccc(C(F)(F)F)n3)c2)s1` (centres unmarked) [Example 87A-10], the IC50 under setting [3] is below 100 nM.

Turning to `Cc1cc(Nc2nccc(C(F)(F)F)n2)cc(-c2cnc(C(=O)NCC(C)(C)O)s2)c1` [Example 87A-11], the IC50 under setting [3] is below 100 nM. As to `Cc1cc(Nc2nccc(C(F)(F)F)n2)cc(-c2cnc(C(=O)NC(C)(CO)CO)s2)c1` [Example 87A-12], the IC50 under setting [3] was below 100 nM. On the same count and under the same terms, as for `Cc1cc(Nc2nccc(C(F)(F)F)n2)cc(-c2cnc(C(=O)NCc3cnn(C)c3)s2)c1` [Example 87A-13], the figure is 100 to 1000 nM; as for `Cc1cc(Nc2nccc(C(F)(F)F)n2)cc(-c2cnc(C(=O)NCc3cncn3C)s2)c1` [Example 87A-14], below 100 nM; as for `Cc1cc(Nc2nccc(C(F)(F)F)n2)cc(-c2cnc(C(=O)NCCc3c[nH]cn3)s2)c1` [Example 87A-15], below 100 nM. With `Cc1cc(Nc2nccc(C(F)(F)F)n2)cc(-c2cnc(C(=O)NC3(CO)CCCC3)s2)c1` [Example 87A-16], the IC50 under setting [3] fell in the range of 1000 to 10000 nM. `Cc1cc(Nc2nccc(C(F)(F)F)n2)cc(-c2cnc(C(=O)N(C)CCC3OCCO3)s2)c1` [Example 87A-17]: under setting [3], the IC50 lay in the range of 100 to 1000 nM.

In the case of `C=C(F)CNC(=O)c1ncc(-c2cc(C)cc(Nc3nccc(C(F)(F)F)n3)c2)s1` [Example 87A-19], under setting [3], the IC50 is below 100 nM. Regarding `Cc1cc(Nc2nccc(C(F)(F)F)n2)cc(-c2cnc(C(=O)NCC3COCCO3)s2)c1` (centres unmarked) [Example 87A-20], the IC50 under setting [3] is below 100 nM. `Cc1cc(Nc2nccc(C(F)(F)F)n2)cc(-c2cnc(C(=O)N(C)Cc3nccn3C)s2)c1` [Example 87A-21]: under setting [3], the IC50 is below 100 nM.
